Data published in patent US20250263370A1 (Tay Therapeutics Limited, priority 2022, published 2025).
pIC50: −log10 of the molar value.

Assays:
[1] = target: BRD4 BD1 (Homo sapiens (Human), UniProt O60885); test: NanoBRET bromodomain assay, NanoLuc-BRD4-BD1 fusion in HEK293 cells; format: cell-based; conditions: top concentration 10 μM
[2] = target: BRD4 BD2 (Homo sapiens (Human), UniProt O60885); test: NanoBRET bromodomain assay, NanoLuc-BRD4-BD2 fusion in HEK293 cells; conditions: for pIC50: BRD4 BD2 (IC50), NanoBRET, HEK293 cells, top concentration 10 μM; for Fold selectivity: IC50 for BRD4 BD1 divided by IC50 for BRD4 BD2, qualitative if an IC50 is at the upper limit;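 as to all read-outs here: tracer displacement BRET read in transfected cells after 2 h compound exposure at 37 °C, signal in milliBRET units corrected against no-tracer background wells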
Description: HEK293 cells were transfected using NanoLuc-BRD4-BD1 or NanoLuc-BRD4-BD2 fusion vectors and incubated at 37° C. in an atmosphere of 5% CO2 for 20-24 hours. The transfected cells were then dispensed into 96-well plates using 90 μl cell suspension per well containing 2×10^5 cells/mL in Opti-MEM and 1× final concentration of tracer. 90 μL per well of cell suspension without tracer was also dispensed into at least 3 wells as “No tracer control samples” for background correction. Serially diluted test compounds were prepared at 1000× concentration in DMSO and further diluted to 10× concentration in Opti-MEM. […] Plates were then incubated at 37° C. +5% 002 incubator for 2 hours. […] Donor emission (450 nm) and acceptor emission (610 nm) were measured using PHERAstar (BMG LabTech). For data analysis, the raw BRET ratio was generated and converted to milliBRET units with background correction using the formula: [(Acceptorsample/Donorsample−(Acceptorno tracer control/Donorno tracer control)]×1000. The mBU data was plotted as a function of compound concentration and IC50s for BRET assay were determined by nonlinear regression analysis of concentration response curves using the Collaborative Drug Discovery Vault software. The fold-selectivity was calculated by dividing the IC50 for BRD4 BD1 by the IC50 for BRD4 BD2.

pIC50 [1]	pIC50 [2]	Fold selectivity [2]	remaining activity at 10 µM ([2]; HEK293, read-out: BRD4 BD2 % Activity Remaining @ 10 uM, 10 uM, (2) = second batch)	SMILES
≤ 5.00	6.70 to 7.30	XX (Fold >50 and ≤200)	–	CCNC(=O)c1cc(OC(C)c2cccc(Cl)c2)c(C(=O)NC)[nH]1 (racemic) [Example 3, 3-(1-(3-chlorophenyl)ethoxy)-N^5-ethyl-N^2-methyl-1H-pyrrole-2,5-dicarboxamide]
≤ 5.00	6.70 to 7.30	XX (Fold >50 and ≤200)	–	CCNC(=O)c1cc(OC(C)c2ccccc2C)c(C(=O)NC)[nH]1 (racemic) [Example 5, N^5-ethyl-N^2-methyl-3-(1-(o-tolyl)ethoxy)-1H-pyrrole-2,5-dicarboxamide]
≤ 5.00	6.00 to 6.70	X (Fold >2 and ≤50)	–	CCNC(=O)c1cc(OC(C)c2ccccc2Cl)c(C(=O)NC)[nH]1 (racemic) [Example 6, 3-(1-(2-chlorophenyl)ethoxy)-N^5-ethyl-N^2-methyl-1H-pyrrole-2,5-dicarboxamide]
≤ 5.00	< 5.00	— (Fold ≥0 and ≤2)	–	CCNC(=O)c1cc(OC(CCOC)c2ccccc2)c(C(=O)NC)[nH]1 (racemic) [Example 8, N^5-ethyl-3-(3-methoxy-1-phenylpropoxy)-N^2-methyl-1H-pyrrole-2,5-dicarboxamide]
≤ 5.00	< 5.00	— (Fold ≥0 and ≤2)	–	CCNC(=O)c1cc(OC(COC)c2ccccc2)c(C(=O)NC)[nH]1 (racemic) [Example 10, N^5-ethyl-3-(2-methoxy-1-phenylethoxy)-N^2-methyl-1H-pyrrole-2,5-dicarboxamide]
≤ 5.00	< 5.00	— (Fold ≥0 and ≤2)	–	CCNC(=O)c1cc(OC(C)c2ccccc2C#N)c(C(=O)NC)[nH]1 (racemic) [Example 11, 3-(1-(2-cyanophenyl)ethoxy)-N^5-ethyl-N^2-methyl-1H-pyrrole-2,5-dicarboxamide]
≤ 5.00	< 5.00	— (Fold ≥0 and ≤2)	–	CCNC(=O)c1cc(OC(c2ccccc2)C2CC2)c(C(=O)NC)[nH]1 (racemic) [Example 63, 3-(cyclopropyl(phenyl)methoxy)-N^5-ethyl-N^2-methyl-1H-pyrrole-2,5-dicarboxamide]
≤ 5.00	5.00 to 6.00	X (Fold >2 and ≤50)	–	CCNC(=O)c1cc(OC(CO)c2ccccc2)c(C(=O)NC)[nH]1 (racemic) [Example 73, N^5-ethyl-3-(2-hydroxy-1-phenylethoxy)-N^2-methyl-1H-pyrrole-2,5-dicarboxamide]
≤ 5.00	< 5.00	— (Fold ≥0 and ≤2)	–	CCNC(=O)c1cc(OC(c2ccccc2)C(C)C)c(C(=O)NC)[nH]1 (racemic) [Example 77, N^5-ethyl-N^2-methyl-3-(2-methyl-1-phenylpropoxy)-1H-pyrrole-2,5-dicarboxamide]
≤ 5.00	6.00 to 6.70	X (Fold >2 and ≤50)	30%	CCNC(=O)c1cc(OC(C)c2ccccn2)c(C(=O)NC)[nH]1 (racemic) [Example 96, N^5-ethyl-N^2-methyl-3-(1-(pyridin-2-yl)ethoxy)-1H-pyrrole-2,5-dicarboxamide]
≤ 5.00	6.00 to 6.70	X (Fold >2 and ≤50)	–	CCNC(=O)c1cc(OC(C)c2cccc(F)c2)c(C(=O)NC)[nH]1 (racemic) [Example 123, N^5-ethyl-3-(1-(3-fluorophenyl)ethoxy)-N^2-methyl-1H-pyrrole-2,5-dicarboxamide]
≤ 5.00	6.70 to 7.30	XX (Fold >50 and ≤200)	–	CCNC(=O)c1cc(OC(C)c2ccccc2F)c(C(=O)NC)[nH]1 (racemic) [Example 124, N^5-ethyl-3-(1-(2-fluorophenyl)ethoxy)-N^2-methyl-1H-pyrrole-2,5-dicarboxamide]
≤ 5.00	6.00 to 6.70	X (Fold >2 and ≤50)	–	CCNC(=O)c1cc(OC(CC)c2ccccc2)c(C(=O)NC)[nH]1 (racemic) [Example 126, N^5-ethyl-N^2-methyl-3-(1-phenylpropoxy)-1H-pyrrole-2,5-dicarboxamide]

More lines, now with the values behind:

SMILES	pIC50 [1]	pIC50 [2]	Fold selectivity [2]	remaining activity at 10 µM ([2]; HEK293, read-out: BRD4 BD2 % Activity Remaining @ 10 uM, 10 uM, (2) = second batch)
CCNC(=O)c1cc(OC(C)c2ccc(C(F)(F)F)cc2)c(C(=O)NC)[nH]1 (racemic) [Example 1, N^5-ethyl-N^2-methyl-3-(1-(4-(trifluoromethyl)phenyl)ethoxy)-1H-pyrrole-2,5-dicarboxamide]	≤ 5.00	6.00 to 6.70	X (Fold >2 and ≤50)	–
CCNC(=O)c1cc(OC(C)c2ccccc2C(F)(F)F)c(C(=O)NC)[nH]1 (racemic) [Example 2, N^5-ethyl-N^2-methyl-3-(1-(2-(trifluoromethyl)phenyl)ethoxy)-1H-pyrrole-2,5-dicarboxamide]	≤ 5.00	6.70 to 7.30	XX (Fold >50 and ≤200)	–
CCNC(=O)c1cc(OC(C)c2cccc(OC)c2)c(C(=O)NC)[nH]1 (racemic) [Example 7, N^5-ethyl-3-(1-(3-methoxyphenyl)ethoxy)-N^2-methyl-1H-pyrrole-2,5-dicarboxamide]	≤ 5.00	6.00 to 6.70	X (Fold >2 and ≤50)	–
CCNC(=O)c1cc(OC(C)c2ccc(C#N)cc2)c(C(=O)NC)[nH]1 (racemic) [Example 9, 3-(1-(4-cyanophenyl)ethoxy)-N^5-ethyl-N^2-methyl-1H-pyrrole-2,5-dicarboxamide]	≤ 5.00	< 5.00	— (Fold ≥0 and ≤2)	–
CCNC(=O)c1cc(OC(C)c2ccc(F)c(F)c2)c(C(=O)NC)[nH]1 (racemic) [Example 12, 3-(1-(3,4-difluorophenyl)ethoxy)-N5-ethyl-N2-methyl-1H-pyrrole-2,5-dicarboxamide]	≤ 5.00	6.00 to 6.70	X (Fold >2 and ≤50)	–
CCNC(=O)c1cc(OC(C)c2cccc(F)c2F)c(C(=O)NC)[nH]1 (racemic) [Example 13, 3-(1-(2,3-difluorophenyl)ethoxy)-N^5-ethyl-N^2-methyl-1H-pyrrole-2,5-dicarboxamide]	≤ 5.00	6.00 to 6.70	X (Fold >2 and ≤50)	–
CCNC(=O)c1cc(OC(C)c2ccc(F)cc2F)c(C(=O)NC)[nH]1 (racemic) [Example 14, 3-(1-(2,4-difluorophenyl)ethoxy)-N^5-ethyl-N^2-methyl-1H-pyrrole-2,5-dicarboxamide]	≤ 5.00	6.00 to 6.70	X (Fold >2 and ≤50)	–
CCNC(=O)c1cc(OC(C)c2ccc3c(c2)COC3)c(C(=O)NC)[nH]1 (racemic) [Example 15, 3-(1-(1,3-dihydroisobenzofuran-5-yl)ethoxy)-M-ethyl-N^2-methyl-1H-pyrrole-2,5-dicarboxamide]	≤ 5.00	6.00 to 6.70	X (Fold >2 and ≤50)	–
CCCC(Oc1cc(C(=O)NCC)[nH]c1C(=O)NC)c1ccccc1 (racemic) [Example 16, N^5-ethyl-N^2-methyl-3-(1-phenylbutoxy)-1H-pyrrole-2,5-dicarboxamide]	≤ 5.00	6.00 to 6.70	X (Fold >2 and ≤50)	–
CCNC(=O)c1cc(OC(C)c2cccc(C)c2)c(C(=O)NC)[nH]1 (racemic) [Example 17, N^5-ethyl-N^2-methyl-3-(1-(m-tolyl)ethoxy)-1H-pyrrole-2,5-dicarboxamide]	≤ 5.00	6.70 to 7.30	XX (Fold >50 and ≤200)	–
CCNC(=O)c1cc(OC(C)c2ccc(Cl)cc2)c(C(=O)NC)[nH]1 (racemic) [Example 122, 3-(1-(4-chlorophenyl)ethoxy)-N^5-ethyl-N^2-methyl-1H-pyrrole-2,5-dicarboxamide]	≤ 5.00	6.70 to 7.30	XX (Fold >50 and ≤200)	–
CCNC(=O)c1cc(OC(C)c2cccc(C(F)(F)F)c2)c(C(=O)NC)[nH]1 (racemic) [Example 125, N^5-ethyl-N^2-methyl-3-(1-(3-(trifluoromethyl)phenyl)ethoxy)-1H-pyrrole-2,5-dicarboxamide]	≤ 5.00	6.00 to 6.70	X (Fold >2 and ≤50)	–
CCNC(=O)c1cc(OC(C)c2ccc(F)cc2)c(C(=O)NC)[nH]1 (racemic) [Example 127, N^5-ethyl-3-(1-(4-fluorophenyl)ethoxy)-N^2-methyl-1H-pyrrole-2,5-dicarboxamide]	≤ 5.00	6.70 to 7.30	XX (Fold >50 and ≤200)	–
CCNC(=O)c1cc(OC(C)c2ccc(Cl)cc2)c(C(=O)NC)[nH]1 (single isomer, unassigned) [Example 19, 3-(1-(4-chlorophenyl)ethoxy)-N^5-ethyl-N^2-methyl-1H-pyrrole-2,5-dicarboxamide]	≤ 5.00	< 5.00	— (Fold ≥0 and ≤2)	–
CNC(=O)c1[nH]c(C(=O)NC2CCC2)cc1OC(C)c1ccc(Cl)cc1 (single isomer, unassigned) [Example 28, 3-(1-(4-chlorophenyl)ethoxy)-N^5-cyclobutyl-N^2-methyl-1H-pyrrole-2,5-dicarboxamide]	–	–	— (Fold ≥0 and ≤2)	–
CCNC(=O)c1cc(OC(C)c2c(C)cccc2C)c(C(=O)NC)[nH]1 (single isomer, unassigned) [Example 64, 3-(1-(2,6-dimethylphenyl)ethoxy)-N^5-ethyl-N^2-methyl-1H-pyrrole-2,5-dicarboxamide]	–	–	— (Fold ≥0 and ≤2)	–
CNC(=O)c1[nH]c(C(=O)N[C@H]2CC[C@H](O)CC2)cc1O[C@@H](C)c1ccnnc1 (single isomer, unassigned) [Example 92, N^5-(4-hydroxycyclohexyl)-N^2-methyl-3-(1-(pyridazin-4-yl)ethoxy)-1H-pyrrole-2,5-dicarboxamide]	–	–	— (Fold ≥0 and ≤2)	–
